Source: paper PMC10620772, “Design, synthesis, and biological evaluation of new pyrimidine-5-carbonitrile derivatives as novel anti-cancer, dual EGFR^WT/COX-2 inhibitors with docking studies” (RSC Advances, 2023)
Values joined by “and” are separate entries in the source; they are usually repeats but may differ in a detail not shown here. Equal entries are not always repeated.

Columns and labels:
786–0 = experiment: NCI60 antitumor screening; type: cell-based, human; conditions: five-dose
Leukemia subpanel = experiment: NCI60 five-dose, subpanel I; type: cell-based, human
Description: (§1) (2) The molar concentration of the compound responsible for total growth inhibition, also known as total growth inhibition (TGI).
(§2) Regarding subpanel selectivity toward certain cancer type, the method of determining a compound's selectivity index is to divide the full panel MG-MID (μM) value by each single subpanel. Values above six indicate high selectivity against the subpanel; moderate selectivity is denoted by values between three and six. Conversely, compounds are termed nonselective if their selectivity is less than three.[30,37]

MDA-MB-231/ATCC = experiment: NCI60 antitumor screening; type: cell-based, human; conditions: Homo sapiens; 10 μM single dose; MDA-MB-231/ATCC (breast cancer); read-out: growth inhibition percent (GI%)
PC-3 = experiment: NCI60 antitumor screening; type: cell-based, human
BT-549 = experiment: NCI60 antitumor screening; type: cell-based, human
OVCAR-3 = experiment: NCI60 antitumor screening; type: cell-based, human
prostate cancer subpanel = experiment: NCI60 five-dose, subpanel VIII; type: cell-based, human
Description: as §1, §2

M14 = experiment: NCI60 antitumor screening; type: cell-based, human
HCT-116 = experiment: NCI60 antitumor screening; type: cell-based, human
U251 = experiment: NCI60 antitumor screening; type: cell-based, human
EGFR^WT = target: T1, EGFR^WT (Homo sapiens, UniProt P00533); experiment: In vitro EGFR^WT inhibitory assay (BPS Bioscience kinase kit); type: biochemical; conditions: means ± SD of three experiments
T1 construct: purchased BPS Bioscience 40 321
T1 sequence (P00533 25-1210): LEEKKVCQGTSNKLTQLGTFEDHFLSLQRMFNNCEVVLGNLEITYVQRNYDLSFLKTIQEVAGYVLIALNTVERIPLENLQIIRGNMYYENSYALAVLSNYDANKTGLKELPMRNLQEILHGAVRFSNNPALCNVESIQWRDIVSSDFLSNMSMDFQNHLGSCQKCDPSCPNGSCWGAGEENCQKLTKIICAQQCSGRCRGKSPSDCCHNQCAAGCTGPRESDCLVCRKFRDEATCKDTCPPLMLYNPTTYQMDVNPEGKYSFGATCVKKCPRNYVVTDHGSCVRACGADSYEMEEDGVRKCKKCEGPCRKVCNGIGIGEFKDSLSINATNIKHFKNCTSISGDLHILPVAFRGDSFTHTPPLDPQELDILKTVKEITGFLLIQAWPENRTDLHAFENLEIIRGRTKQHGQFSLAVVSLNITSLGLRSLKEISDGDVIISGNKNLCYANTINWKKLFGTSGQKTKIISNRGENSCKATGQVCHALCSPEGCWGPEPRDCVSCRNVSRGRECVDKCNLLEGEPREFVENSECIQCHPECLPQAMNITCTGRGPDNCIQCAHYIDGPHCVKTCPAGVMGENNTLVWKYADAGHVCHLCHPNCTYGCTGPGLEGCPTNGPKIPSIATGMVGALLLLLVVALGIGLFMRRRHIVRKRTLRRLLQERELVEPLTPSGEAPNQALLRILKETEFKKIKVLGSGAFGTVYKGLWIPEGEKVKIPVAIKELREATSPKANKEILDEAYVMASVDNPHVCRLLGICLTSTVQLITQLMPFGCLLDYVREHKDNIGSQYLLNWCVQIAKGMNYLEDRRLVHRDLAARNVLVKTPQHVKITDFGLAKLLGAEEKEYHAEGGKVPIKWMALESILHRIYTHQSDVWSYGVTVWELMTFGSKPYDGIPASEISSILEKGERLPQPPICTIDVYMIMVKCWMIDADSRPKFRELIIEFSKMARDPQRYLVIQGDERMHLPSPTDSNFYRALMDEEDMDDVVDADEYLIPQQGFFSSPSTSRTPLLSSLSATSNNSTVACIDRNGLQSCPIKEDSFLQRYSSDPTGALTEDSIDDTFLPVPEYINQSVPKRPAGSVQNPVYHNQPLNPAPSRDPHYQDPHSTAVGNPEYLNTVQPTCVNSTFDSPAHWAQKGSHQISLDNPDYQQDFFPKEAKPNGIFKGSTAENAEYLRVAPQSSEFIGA
Protocol: (1) Prepare the mixture of N wells × (kinase assay buffer 6 μl, ATP1 μl, PTK substrate 1 μl and water 17 μl). to every well pipette the 25 μl. […] On the contrary, add 5 μl of inhibitor buffer to control and plank wells. (3) Pipette 20 μl of EGFR^WT to test and control wells, on the blank wells pipette 20 μl kinase assay buffer. Then incubate at R.T for 40 min. (4) end the incubation after 40 min by adding to every well 50 μl of Kinase-Glo Max reagent, and incubate 15 min. By measuring the ATP quantity after kinase reaction, the activity of kinase could be detected. (5) use microplate reader to measure the luminescence.[51]

SF-268 = experiment: NCI60 antitumor screening; type: cell-based, human
SF-539 = experiment: NCI60 antitumor screening; type: cell-based, human
HL-60(TB) = experiment: NCI60 antitumor screening; type: cell-based, human
MOLT-4 = experiment: NCI60 antitumor screening; type: cell-based, human
CCRF-CEM = experiment: NCI60 antitumor screening; type: cell-based, human
[1] = full panel MG-MID / subpanel VIII
[2] = Homo sapiens, SF-539, five-dose

For `N#Cc1c(-c2ccc(F)cc2)nc(SCc2ccc(F)cc2)nc1N1CCNCC1` [4f, 2-((4-Fluorobenzyl)thio)-4-(4-fluorophenyl)-6-(piperazin-1-yl) pyrimidine-5-carbonitrile], the TGI (786–0) was 29.30 µM, the GI50 (Leukemia subpanel; Homo sapiens, subpanel I, read-out: MG-MID (GI50)) was 7.63 µM and the “Selectivity index (GI50)” value (Leukemia subpanel; full panel MG-MID / subpanel I) was 1.76. The “Selectivity index (TGI)” value (Leukemia subpanel; full panel MG-MID / subpanel I) was 1.21, the “MG-MID (TGI)” value (Leukemia subpanel; subpanel I) was 21.84 µM and the inhibition at 10 µM (MDA-MB-231/ATCC) was greater than 100%. It also gave a GI% (PC-3; 10 μM one-dose) of 88.74%, a GI50 (PC-3; Homo sapiens, PC-3, five-dose) of 12.5 µM and a CC50 (PC-3; Homo sapiens, PC-3, five-dose, read-out: LC50 (the source's name)) of 61.3 µM. For the same compound, the inhibition at 10 µM (PC-3; Homo sapiens, 10 μM single dose, PC-3 (prostate cancer), read-out: growth inhibition percent (GI%)) was 88.7%, the TGI (PC-3; five-dose) was 27.70 µM and the GI50 (BT-549; Homo sapiens, BT-549, five-dose) was 10.7 µM. It also gave a CC50 (BT-549; Homo sapiens, BT-549, five-dose, read-out: LC50 (the source's name)) of 49.4 µM, an inhibition at 10 µM (BT-549; Homo sapiens, 10 μM single dose, BT-549 (breast cancer), read-out: growth inhibition percent (GI%)) of 17.3% and a TGI (BT-549; five-dose) of 23.00 µM. The GI50 (OVCAR-3; Homo sapiens, OVCAR-3, five-dose) was 15.5 µM, the CC50 (OVCAR-3; Homo sapiens, OVCAR-3, five-dose, read-out: LC50 (the source's name)) was 61.2 µM and the inhibition at 10 µM (OVCAR-3; Homo sapiens, 10 μM single dose, OVCAR-3 (ovarian cancer), read-out: growth inhibition percent (GI%)) was greater than 100%. The TGI (OVCAR-3; five-dose) was 30.80 µM, the GI50 (prostate cancer subpanel; Homo sapiens, subpanel VIII, read-out: MG-MID (GI50)) was 14.7 µM and the “Selectivity index (GI50)” value (prostate cancer subpanel; [1]) was 0.91. For the same compound, the “Selectivity index (TGI)” value (prostate cancer subpanel; [1]) was 0.89, the “MG-MID (TGI)” value (prostate cancer subpanel; subpanel VIII) was 29.50 µM and the GI50 (M14; Homo sapiens, M14, five-dose) was 13.6 µM. It also gave a CC50 (M14; Homo sapiens, M14, five-dose, read-out: LC50 (the source's name)) of 52.9 µM, an inhibition at 10 µM (M14; Homo sapiens, 10 μM single dose, M14 (melanoma), read-out: growth inhibition percent (GI%)) greater than 100% and a TGI (M14; five-dose) of 26.80 µM. For the same compound, the GI50 (HCT-116; Homo sapiens, HCT-116, five-dose) was 4.15 µM, the CC50 (HCT-116; Homo sapiens, HCT-116, five-dose, read-out: LC50 (the source's name)) was 42.8 µM and the inhibition at 10 µM (HCT-116; Homo sapiens, 10 μM single dose, HCT-116 (colon cancer), read-out: growth inhibition percent (GI%)) was greater than 100%. It also gave a TGI (HCT-116; five-dose) of 15.60 µM, an inhibition at 10 µM (U251; Homo sapiens, U-251, 10 μM single dose, U251 (CNS cancer), read-out: growth inhibition percent (GI%)) greater than 100% and a GI50 (U251; Homo sapiens, U-251, five-dose) of 10.3 µM. For the same compound, the CC50 (U251; Homo sapiens, U-251, five-dose, read-out: LC50 (the source's name)) was 59.1 µM, the TGI (U251; five-dose) was 24.70 µM and the IC50 (EGFR^WT) was 0.23 µM and 0.235 µM. It also gave a GI50 (SF-268; Homo sapiens, SF-268, five-dose) of 14.1 µM, a CC50 (SF-268; Homo sapiens, SF-268, five-dose, read-out: LC50 (the source's name)) of 67.5 µM and an inhibition at 10 µM (SF-268; Homo sapiens, 10 μM single dose, SF-268 (CNS cancer), read-out: growth inhibition percent (GI%)) of 58.5%. It also gave a TGI (SF-268; five-dose) of 30.90 µM, a GI50 (SF-539; [2]) of 15.6 µM and an LC50 (SF-539; [2]) of 54.1 µM. The inhibition at 10 µM (SF-539; Homo sapiens, 10 μM single dose, SF-539 (CNS cancer), read-out: growth inhibition percent (GI%)) was greater than 100%, the TGI (SF-539; five-dose) was 29.00 µM and the GI50 (HL-60(TB); Homo sapiens, HL-60, five-dose) was 7.66 µM. It also gave a CC50 (HL-60(TB); Homo sapiens, HL-60, five-dose, read-out: LC50 (the source's name)) of 63.8 µM, an inhibition at 10 µM (HL-60(TB); Homo sapiens, 10 μM single dose, HL-60(TB) (leukaemia), read-out: growth inhibition percent (GI%)) greater than 100% and a TGI (HL-60(TB); five-dose) of 24.00 µM. The GI% (MOLT-4; 10 μM one-dose) was 92.21%, the GI50 (MOLT-4; Homo sapiens, MOLT-4, five-dose) was 10.5 µM and the CC50 (MOLT-4; Homo sapiens, MOLT-4, five-dose, read-out: LC50 (the source's name)) was 64.4 µM. It also gave an inhibition at 10 µM (MOLT-4; Homo sapiens, 10 μM single dose, MOLT-4 (leukaemia), read-out: growth inhibition percent (GI%)) of 92.2%, a TGI (MOLT-4; five-dose) of 26.00 µM and a GI% (CCRF-CEM; 10 μM one-dose) of 95.51%. The GI50 (CCRF-CEM; Homo sapiens, CCRF-CEM, five-dose) was 14.9 µM, the CC50 (CCRF-CEM; Homo sapiens, CCRF-CEM, five-dose, read-out: LC50 (the source's name)) was 76 µM and the inhibition at 10 µM (CCRF-CEM; Homo sapiens, 10 μM single dose, CCRF-CEM (leukaemia), read-out: growth inhibition percent (GI%)) was 95.5%. The TGI (CCRF-CEM; five-dose) was 33.60 µM.
